Consider 1 compound from patent US6511815B1, “Method for quantitating competitive binding of molecules to proteins utilizing fluorescence polarization” (priority 1996, dated 2003).

This assay deals with T1, Estrogen receptor (Homo sapiens, UniProt P03372).
T1 construct: purchased PanVera Corporation, Madison, Wis
The assay can be described thus: Competitive fluorescence polarization assay, displacement of fluormone ES1 from ER by environmental compounds. The settings on record: 1 nM ES1, 10 nM ER, 2.5 hours at room temperature, 360/485 nm. The assay is classed as binding. Here is the method: Many compounds found in the environment are know to act as natural estrogens. […] The two pesticides were tested individually and together. […] Estrogen receptor was added to each tube at a final concentration of 10 nM. The mixtures were allowed to equilibrate for 2.5 hours at room temperature and the polarization values were read 360/485 nm excitation/emission.

T1 sequence (P03372 whole entry): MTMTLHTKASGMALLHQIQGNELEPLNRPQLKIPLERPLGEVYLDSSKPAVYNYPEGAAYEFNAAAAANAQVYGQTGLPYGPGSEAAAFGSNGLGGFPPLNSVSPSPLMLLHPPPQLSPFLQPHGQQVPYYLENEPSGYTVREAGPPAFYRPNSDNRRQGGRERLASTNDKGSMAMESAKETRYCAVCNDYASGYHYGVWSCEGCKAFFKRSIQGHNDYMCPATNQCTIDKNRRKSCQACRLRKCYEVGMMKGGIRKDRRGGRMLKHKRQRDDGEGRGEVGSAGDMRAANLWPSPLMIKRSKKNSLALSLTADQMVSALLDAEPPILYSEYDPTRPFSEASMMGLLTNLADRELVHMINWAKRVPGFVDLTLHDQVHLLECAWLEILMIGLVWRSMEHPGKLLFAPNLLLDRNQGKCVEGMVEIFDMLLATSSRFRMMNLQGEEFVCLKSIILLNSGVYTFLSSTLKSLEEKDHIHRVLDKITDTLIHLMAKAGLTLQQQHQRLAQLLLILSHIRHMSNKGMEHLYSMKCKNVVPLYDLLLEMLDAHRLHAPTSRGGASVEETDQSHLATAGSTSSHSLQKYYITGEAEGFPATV

On to `ClC1=C(Cl)C2(Cl)C3C(Cl)C(Cl)CC3C1(Cl)C2(Cl)Cl` (stereo not shown) [chlordane], for which the “ability to displace fluormone ES1 binding to ER” value is “effectively competed the fluormone ES1 off the estrogen receptor”.
